Legend:
individuals [1] = details: oxymetazoline 0.050% in over-the-counter sprays, days of use; cited from earlier work
individuals [2] = experiment: Long-term nasal use: rebound effect (rebound congestion); type: in vivo, human; details: oxymetazoline or salts at less than 0.050%, preferably 0.025%
From the text: In an embodiment of the nasal spray composition, the nasal spray composition may include effective amounts of a decongestant or vasoconstrictor, such as oxymetazoline, or pharmaceutical acceptable salts thereof, such as oxymetazoline hydrochloride. In an illustrative embodiment, the effective amount of oxymetazoline or pharmaceutical acceptable salts thereof, is less than 0.050%, between less than 0.050% and 0.010%, and more preferably, 0.025% or about 0.025%. Oxymetazoline, a member of the imidazole group, binds and activates alpha-2 adrenergic receptors. Upon nasal administration, imidazole group compounds constrict the arterioles in the nose, resulting in decreasing congestion. Concentrations of oxymetazoline (0.050%) utilized in the over-the-counter sprays have been proven to return symptoms to a degree stronger than present initially upon discontinuation of the drug. This is called the rebound effect, or rebound congestion (rhinitis medicamentosa, chemical rhinitis, or nasal spray addiction). The rebound effect may occur in as early as 3 days of use, but typically occurs in 3-5 days and sometimes 5-7 days of use. […] As such, the nasal spray according to the present invention can be used for a time period greater than 5-7 days without the risk of suffering from any rebound effect. […]

## Cc1cc(C(C)(C)C)c(O)c(C)c1CC1=NCCN1 [oxymetazoline]
Individuals [1]
  rebound effect: earliest onset (may occur in as early as): 3 days
  rebound effect: onset sometimes: 5 to 7 days
  rebound effect: typical onset: 3 to 5 days
Individuals [2]
  effect on snoring or sleep apnea and rebound effect: effective at reducing or minimizing snoring or sleep apnea while preventing the rebound effect
